The record followed here is patent publication US20240150377A1, “MODULATORS OF CYSTIC FIBROSIS TRANSMEMBRANE CONDUCTANCE REGULATOR” (VERTEX PHARMACEUTICALS INCORPORATED, priority 2020, published 2024).

The assay deals with T1, CFTR (Homo sapiens, UniProt P13569, DEL508-508).
T1 construct: endogenous in cells; host or cells: primary human bronchial epithelial cells from CF subjects (F508del/MF-HBE), differentiated at air-liquid interface
Kind of assay: HBE2 assay: Ussing chamber assay of CFTR-mediated short-circuit currents. Format: cell-based. The conditions noted are these: F508del/MF-HBE cells, with 44 nM potentiator, 18-24 hours, 20% human serum; for Emax: read-out: HBE2 Max activity (%). In outline:
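F508del/MF-HBE cultured >14 days at air-liquid interface, mounted in Ussing chambers; transepithelial short-circuit current recorded under voltage clamp (Vhold=0 mV) at 37 °C. CFTR-mediated ISC (μA/cm^2) taken as peak forskolin response relative to steady-state current after inhibition; corrector activity assessed this way.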

T1 sequence (P13569 with tags, fused parts or gaps DEL508-508): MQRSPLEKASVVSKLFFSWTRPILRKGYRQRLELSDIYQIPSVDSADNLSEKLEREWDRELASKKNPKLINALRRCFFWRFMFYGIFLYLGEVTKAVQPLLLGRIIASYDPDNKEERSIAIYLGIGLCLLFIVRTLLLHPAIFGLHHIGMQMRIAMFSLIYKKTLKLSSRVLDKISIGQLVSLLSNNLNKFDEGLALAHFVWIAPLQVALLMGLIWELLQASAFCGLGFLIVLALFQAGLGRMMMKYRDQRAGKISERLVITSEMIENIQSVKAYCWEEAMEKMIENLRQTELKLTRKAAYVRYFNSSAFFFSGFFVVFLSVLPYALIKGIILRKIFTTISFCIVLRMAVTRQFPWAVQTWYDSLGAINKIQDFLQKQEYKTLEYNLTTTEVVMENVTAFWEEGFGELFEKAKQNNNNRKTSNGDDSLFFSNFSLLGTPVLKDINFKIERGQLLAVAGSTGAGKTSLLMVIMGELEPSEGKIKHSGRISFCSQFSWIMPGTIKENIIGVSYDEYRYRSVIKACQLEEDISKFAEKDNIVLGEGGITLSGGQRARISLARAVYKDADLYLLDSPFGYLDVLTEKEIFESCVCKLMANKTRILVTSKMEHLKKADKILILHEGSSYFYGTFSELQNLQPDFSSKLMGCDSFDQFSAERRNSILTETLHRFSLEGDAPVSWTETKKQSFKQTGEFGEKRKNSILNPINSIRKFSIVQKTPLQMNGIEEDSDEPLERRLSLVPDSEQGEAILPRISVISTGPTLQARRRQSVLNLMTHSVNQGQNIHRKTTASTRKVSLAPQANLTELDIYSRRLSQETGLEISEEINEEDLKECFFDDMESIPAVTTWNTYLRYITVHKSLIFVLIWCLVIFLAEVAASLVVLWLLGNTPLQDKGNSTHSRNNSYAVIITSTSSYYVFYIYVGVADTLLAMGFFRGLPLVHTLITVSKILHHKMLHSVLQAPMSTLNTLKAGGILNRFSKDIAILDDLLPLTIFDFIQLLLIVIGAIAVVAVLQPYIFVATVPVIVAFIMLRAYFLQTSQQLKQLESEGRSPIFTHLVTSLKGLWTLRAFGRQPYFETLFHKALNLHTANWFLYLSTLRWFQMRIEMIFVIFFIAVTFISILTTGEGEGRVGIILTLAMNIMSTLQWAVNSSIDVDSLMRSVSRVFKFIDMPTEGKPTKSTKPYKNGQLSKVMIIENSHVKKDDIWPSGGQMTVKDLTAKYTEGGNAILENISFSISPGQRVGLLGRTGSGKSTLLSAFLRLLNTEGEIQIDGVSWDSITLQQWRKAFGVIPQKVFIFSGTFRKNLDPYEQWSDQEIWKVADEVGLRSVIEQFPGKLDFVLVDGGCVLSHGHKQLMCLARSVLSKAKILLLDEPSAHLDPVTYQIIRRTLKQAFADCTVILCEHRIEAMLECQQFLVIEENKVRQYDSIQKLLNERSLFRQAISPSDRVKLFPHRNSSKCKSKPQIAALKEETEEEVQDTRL

Regarding `CCCOc1cnc(CN2C(=O)c3cccc(c3)S(=O)(=O)Nc3nc(cc(-c4c(C)cccc4C)n3)OC[C@H]2CC2(C)CC2)nc1` [Compound 1562], the “HBE2 Activity at 3 μM (%)” value (3 μM) is listed as “+++ (+++ is >60+)”.

`CNC(=O)OCCN(C)c1cncc(CN2C(=O)c3cccc(c3)S(=O)(=O)Nc3nc(cc(-c4c(C)cccc4C)n3)OC[C@H]2CC(C)(C)C)n1` [Compound 1666]: under “3 μM”, the “HBE2 Activity at 3 μM (%)” value is on record as “+++ (+++ is >60+)”.

For `Cc1cccc(C)c1-c1cc2nc(n1)NS(=O)(=O)c1cccc(c1)C(=O)N(Cc1cncc(N3CCCC[C@H]3C)n1)[C@@H](C1CC(C)(C)C1)CO2` [Compound 1898], under “3 μM corrector”, the “HBE2 Activity at 3 μM (%)” value was “+++ (+++ is >60+)”.

`Cc1cccc(C)c1-c1cc2nc(n1)NS(=O)(=O)c1cccc(c1)C(=O)N(Cc1cncc(N(C)C(C)C)n1)[C@H](CC1CCCCC1)CO2` [Compound 1825]: the “HBE2 Activity at 3 μM (%)” value (3 μM corrector) was “+++ (+++ is >60+)”.

On to `Cc1cccc(C)c1-c1cc2nc(n1)NS(=O)(=O)c1cccc(c1)C(=O)N(Cc1cnc3cc(C(C)C)n(C)c3n1)[C@H](CC1(C(F)(F)F)CC1)CO2` [Compound 1835], for which the “HBE2 Activity at 3 μM (%)” value (3 μM corrector) is given as “+++ (+++ is >60+)”.

Consider `COC[C@H]1CCCCN1c1cncc(CN2C(=O)c3cccc(c3)S(=O)(=O)Nc3nc(cc(-c4c(C)cccc4C)n3)OC[C@H]2CCC(C)(C)C)n1` [Compound 1857], for which, under “3 μM corrector”, the “HBE2 Activity at 3 μM (%)” value is recorded as “+++ (+++ is >60+)”.

`Cc1cccc(C)c1-c1cc2nc(n1)NS(=O)(=O)c1cccc(c1)C(=O)N(Cc1cc(C(C)C)n(C)n1)[C@H](CC(C)(C)C)CO2` [Compound 1413]: the “HBE2 Activity at 3 μM (%)” value (3 μM) is “++ (++ is 30-60%)”.

As a reminder, the EC50 is the concentration needed to bring the measured effect to its halfway point. For the compound `COC[C@@H]1CCN1c1cncc(CN2C(=O)c3cccc(c3)S(=O)(=O)Nc3nc(cc(-c4c(C)cccc4C)n3)OC[C@H]2CC(C)(C)C)n1` [Compound 1549], the EC50 is less than 1 µM and the Emax was greater than 60%. Also, the “HBE2 Activity at 3 μM (%)” value (3 μM) is “+++ (+++ is >60+)”.

Consider `Cc1cccc(C)c1-c1cc2nc(n1)NS(=O)(=O)c1cccc(c1)C(=O)N(Cc1cncc(N3CCC4C3CC(=O)N4C)n1)[C@H](CC(C)(C)C)CO2` (stereo partly shown) [Compound 1639], for which the “HBE2 Activity at 3 μM (%)” value (3 μM) is reported as “+++ (+++ is >60+)”.

Turning to `Cc1cccc(C)c1-c1cc2nc(n1)NS(=O)(=O)c1cccc(c1)C(=O)N(Cc1cncc(N(C)CC(C)C)n1)[C@H](COC1CC1)CO2` [Compound 1903], under “3 μM corrector”, the “HBE2 Activity at 3 μM (%)” value was “+++ (+++ is >60+)”.

With `Cc1cccc(C)c1-c1cc2nc(n1)NS(=O)(=O)c1cccc(c1)C(=O)N(Cc1ncc(OC(C)C)cn1)[C@H](CC1CCC1)[C@@H](C)O2` [Compound 1565], under “3 μM”, the “HBE2 Activity at 3 μM (%)” value is recorded as “+++ (+++ is >60+)”.

`Cc1cccc(C)c1-c1cc2nc(n1)NS(=O)(=O)c1cccc(c1)C(=O)N(Cc1cncc(N(C)[C@H]3C[C@H](F)C3)n1)[C@H](COC1CC1)CO2` [Compound 1907]: the “HBE2 Activity at 3 μM (%)” value (3 μM corrector) is given as “+++ (+++ is >60+)”.

For the compound `Cc1cccc(C)c1-c1cc2nc(n1)NS(=O)(=O)c1cccc(c1)C(=O)N(Cc1nccc(N(C)C(C)C)n1)[C@H](CCC(C)C)CO2` [Compound 1734], the “HBE2 Activity at 3 μM (%)” value (3 μM corrector) is “+++ (+++ is >60+)”.

As for `Cc1cccc(C)c1-c1cc2nc(n1)NS(=O)(=O)c1cccc(c1)C(=O)N(Cc1cncc(N(C)CC(=O)N(C)C)n1)[C@H](CC(C)(C)C)CO2` [Compound 1630], the “HBE2 Activity at 3 μM (%)” value (3 μM) is “++ (++ is 30-60%)”.

For `COC[C@H]1CCCCN1c1cncc(CN2C(=O)c3cccc(c3)S(=O)(=O)Nc3nc(cc(-c4c(C)cccc4C)n3)OC[C@H]2CC(C)(C)C)n1` [Compound 1539], the EC50 was less than 1 µM and the Emax was greater than 60%.

Consider `Cc1cccc(C)c1-c1cc2nc(n1)NS(=O)(=O)c1cccc(c1)C(=O)N(Cc1cncc(N3CCCC[C@H]3C)n1)[C@@H](CCC(C)(C)F)CO2` (single isomer, unassigned) [Compound 1328], for which the “HBE2 Activity at 3 μM (%)” value (3 μM corrector) is listed as “++ (++ is 30-60%)”.

`Cc1cccc(C)c1-c1cc2nc(n1)NS(=O)(=O)c1cccc(c1)C(=O)N(Cc1ncc(N3CCC(C)(C)C3)cn1)[C@H](COC(C)C)CO2` [Compound 1955]: under “3 μM corrector”, the “HBE2 Activity at 3 μM (%)” value is given as “+++ (+++ is >60+)”.

As for `COC[C@@H]1CCN1c1cccc(CN2C(=O)c3cccc(c3)S(=O)(=O)Nc3nc(cc(-c4c(C)cccc4C)n3)OC[C@H]2CC(C)(C)C)n1` [Compound 1550], under “3 μM”, the “HBE2 Activity at 3 μM (%)” value is “+++ (+++ is >60+)”.

With `Cc1cccc(C)c1-c1cc2nc(n1)NS(=O)(=O)c1cccc(c1)C(=O)N(Cc1cncc(N(C)C(C)C)n1)[C@H](CCC1CC1)CO2` [Compound 1718], under “3 μM corrector”, the “HBE2 Activity at 3 μM (%)” value is on record as “+++ (+++ is >60+)”.

`Cc1cccc(C)c1-c1cc2nc(n1)NS(=O)(=O)c1cccc(c1)C(=O)N(Cc1cncc(N3CCCC[C@H]3C)n1)[C@H](CCC(C)C)CO2` [Compound 1749]: where the note is “3 μM corrector”, the “HBE2 Activity at 3 μM (%)” value is given as “+++ (+++ is >60+)”.

In the case of `Cc1cccc(C)c1-c1cc2nc(n1)NS(=O)(=O)c1cccc(c1)C(=O)N(Cc1cncc(N3CCC[C@H]3C)n1)[C@H](CC(C)(C)F)CO2` [Compound 1803], under “3 μM corrector”, the “HBE2 Activity at 3 μM (%)” value is recorded as “+++ (+++ is >60+)”.

Take `Cc1cccc(C)c1-c1cc2nc(n1)NS(=O)(=O)c1cccc(c1)C(=O)N(Cc1cncc(N3CCC[C@H]3C)n1)[C@H](CC1CC(C)(C)C1)CO2` [Compound 1900]: the “HBE2 Activity at 3 μM (%)” value (3 μM corrector) is reported as “+ (+ is <300))”.

`Cc1cccc(C)c1-c1cc2nc(n1)NS(=O)(=O)c1cccc(c1)C(=O)N(Cc1cncc(N(C)CC3(C)COC3)n1)[C@H](CC(C)(C)C)CO2` [Compound 1613]: where the note is “3 μM”, the “HBE2 Activity at 3 μM (%)” value is on record as “+++ (+++ is >60+)”.

`Cc1cccc(C)c1-c1cc2nc(n1)NS(=O)(=O)c1cccc(c1)C(=O)N(Cc1cncc(N(C)C3CCC3)n1)[C@H](CC1CCCC1)CO2` [Compound 1844]: where the note is “3 μM corrector”, the “HBE2 Activity at 3 μM (%)” value was “+++ (+++ is >60+)”.

As to `Cc1cccc(C)c1-c1cc2nc(n1)NS(=O)(=O)c1cccc(c1)C(=O)N(Cc1cncc(N(C)C3CCC3)n1)[C@@H]1CN(C3CC4(CC4)C3)C[C@H]1O2` [Compound 1742], for the setting “3 μM corrector”, the “HBE2 Activity at 3 μM (%)” value is on record as “+++ (+++ is >60+)”.

Take `CCN(c1cncc(CN2C(=O)c3cccc(c3)S(=O)(=O)Nc3nc(cc(-c4c(C)cccc4C)n3)OC[C@H]2CC(C)(C)C)n1)C1CCC1` [Compound 1579]: the EC50 is less than 1 µM and the Emax is greater than 60%. Further, where the note is “3 μM”, the “HBE2 Activity at 3 μM (%)” value was “+++ (+++ is >60+)”.

For `Cc1cccc(C)c1-c1cc2nc(n1)NS(=O)(=O)c1cccc(c1)C(=O)N(Cc1ncc(OC(C)C)cn1)[C@H](C(C)C1CC1)CO2` (stereo in doubt) [Compound 1557], the “HBE2 Activity at 3 μM (%)” value (3 μM) is given as “+ (+ is <300))”.

Turning to `Cc1cccc(C)c1-c1cc2nc(n1)NS(=O)(=O)c1cccc(c1)C(=O)N(Cc1cncc(N(C)C3CCC3)n1)[C@H](CC1CCCCC1)CO2` [Compound 1804], the “HBE2 Activity at 3 μM (%)” value (3 μM corrector) was “+++ (+++ is >60+)”.

As to `Cc1cccc(C)c1-c1cc2nc(n1)NS(=O)(=O)c1cccc(c1)C(=O)N(Cc1cnc3ccn(CC(C)C)c3n1)[C@H](CC(C)(C)C)CO2` [Compound 1755], the “HBE2 Activity at 3 μM (%)” value (3 μM corrector) was “+++ (+++ is >60+)”.

On to `Cc1cccc(C)c1-c1cc2nc(n1)NS(=O)(=O)c1cccc(c1)C(=O)N(Cc1cncc(N(C)C3CC(F)(F)C3)n1)[C@H](COC1CC1)CO2` [Compound 1905], for which, under “3 μM corrector”, the “HBE2 Activity at 3 μM (%)” value was “+++ (+++ is >60+)”.

`Cc1cccc(C)c1-c1cc2nc(n1)NS(=O)(=O)c1cccc(c1)C(=O)N(Cc1cncc(N(C)C3CCC3)n1)[C@H](C[C@H]1CCCOC1)CO2` (stereo in doubt) [Compound 1938]: where the note is “3 μM corrector”, the “HBE2 Activity at 3 μM (%)” value is recorded as “+++ (+++ is >60+)”.

For the compound `CC(=O)N(C)c1cncc(CN2C(=O)c3cccc(c3)S(=O)(=O)Nc3nc(cc(-c4c(C)cccc4C)n3)OC[C@H]2CC(C)(C)C)n1` [Compound 1581], the “HBE2 Activity at 3 μM (%)” value (3 μM) is “+++ (+++ is >60+)”.

As for `Cc1cccc(C)c1-c1cc2nc(n1)NS(=O)(=O)c1cccc(c1)C(=O)N(Cc1cncc(N3CCC4NC(=O)CC43)n1)[C@H](CC(C)(C)C)CO2` (stereo in doubt) [Compound 1621], the “HBE2 Activity at 3 μM (%)” value (3 μM) is on record as “++ (++ is 30-60%)”.

`Cc1cccc(C)c1-c1cc2nc(n1)NS(=O)(=O)c1cccc(c1)C(=O)N(Cc1cncc(N(C)CC3CCC3)n1)[C@H](CC(C)(C)C)CO2` [Compound 1614]: where the note is “3 μM”, the “HBE2 Activity at 3 μM (%)” value is “+++ (+++ is >60+)”.

On to `Cc1cccc(C)c1-c1cc2nc(n1)NS(=O)(=O)c1cccc(c1)C(=O)N(Cc1ncc(N3CC(C)(C)C3)cn1)[C@H](CC(C)C)CO2` [Compound 1563], for which the “HBE2 Activity at 3 μM (%)” value (3 μM) is recorded as “+++ (+++ is >60+)”.

As to `Cc1cccc(C)c1-c1cc2nc(n1)NS(=O)(=O)c1cccc(c1)C(=O)N(Cc1cncc(N(C)c3cnn(C)c3)n1)[C@H](CC(C)(C)C)CO2` [Compound 1636], the “HBE2 Activity at 3 μM (%)” value (3 μM) is listed as “+++ (+++ is >60+)”.

With `Cc1cccc(C)c1-c1cc2nc(n1)NS(=O)(=O)c1cccc(c1)C(=O)N(Cc1cncc(N3CCC[C@H]4COC[C@H]43)n1)[C@H](CC(C)(C)C)CO2` (stereo in doubt) [Compound 1679], the “HBE2 Activity at 3 μM (%)” value (3 μM) was “+++ (+++ is >60+)”.

Take `Cc1cccc(C)c1-c1cc2nc(n1)NS(=O)(=O)c1cccc(c1)C(=O)N(Cc1cncc(N3CCCC34CCC4)n1)[C@H](CC(C)(C)C)CO2` [Compound 1625]: the “HBE2 Activity at 3 μM (%)” value (3 μM) was “+++ (+++ is >60+)”.

For `Cc1cccc(C)c1-c1cc2nc(n1)NS(=O)(=O)c1cccc(c1)C(=O)N(Cc1cncc(N3C[C@H]4CCC[C@H]43)n1)[C@H](CC(C)(C)C)CO2` [Compound 1708], the “HBE2 Activity at 3 μM (%)” value (3 μM) is on record as “+++ (+++ is >60+)”.

As to `CO[C@@H]1CC[C@@H]1N(C)c1cncc(CN2C(=O)c3cccc(c3)S(=O)(=O)Nc3nc(cc(-c4c(C)cccc4C)n3)OC[C@H]2CC(C)(C)C)n1` (stereo in doubt) [Compound 1607], the “HBE2 Activity at 3 μM (%)” value (3 μM) is listed as “+++ (+++ is >60+)”.

Consider `Cc1cccc(C)c1-c1cc2nc(n1)NS(=O)(=O)c1cccc(c1)C(=O)N(Cc1cncc(N3CCC[C@H]3C)n1)[C@H](CC1CCCC1)CO2` [Compound 1888], for which, where the note is “3 μM corrector”, the “HBE2 Activity at 3 μM (%)” value is “+++ (+++ is >60+)”.
